Measured values: article PMC12040169 (PLOS Biology, 2025)

Assay: in vitro
Conditions: human, hela cells, % viability

| SMILES | viability at 28.5 h, 10 µM [%] |
| --- | --- |
| CN1C[C@@H](NC(=O)Nc2cccc(C#N)c2)C[C@H]1c1nc(-c2ccncc2)no1 [CBK288856] | 112 |
| CN1C[C@@H](NC(=O)c2cccnc2)C[C@H]1c1nc(-c2cccnc2)no1 [CBK288857] | 86.7 |
| CN1C[C@@H](NC(=O)Nc2ccccc2)C[C@H]1c1nc(Cc2ccccc2)no1 [CBK288860] | 85.2 |
| N#Cc1cccc(CN2C[C@H](O)C[C@H]2c2nc(-c3ccc4c(c3)OCO4)no2)c1 [CBK288866] | 90 |
| O[C@@H]1C[C@@H](c2nc(-c3ccc4c(c3)OCO4)no2)N(Cc2cc3ccccc3o2)C1 [CBK288868] | 83.9 |
| CN1C[C@@H](NC(=O)c2ccc3c(c2)OCO3)C[C@H]1c1nc(-c2ccccc2)no1 [CBK288876] | 108 |
| CN1CCC(N2CCC[C@H]2c2nc(-c3ccnc(N4CCOCC4)c3)no2)CC1 [CBK288880] | 94.4 |
| CC(C)N1CCC[C@H]1c1nc(-c2ccc(N3CCN(C)CC3)nc2)no1 [CBK288881] | 83.6 |
| NC(=O)C1CCN(c2ccc(-c3noc([C@@H]4CCCN4Cc4cccnc4)n3)cn2)CC1 [CBK288882] | 108 |
| CS(=O)(=O)Nc1cc(-c2noc([C@@H]3CCCN3Cc3ccccn3)n2)ccn1 [CBK288885] | 87.3 |
| CC(=O)Nc1ccc(CN2CCC[C@H]2c2nc(-c3ccnc(NS(C)(=O)=O)c3)no2)cc1 [CBK288888] | 109 |
| CS(=O)(=O)Nc1cc(-c2noc([C@@H]3CCCN3Cc3ccc(S(C)(=O)=O)cc3)n2)ccn1 [CBK288890] | 90.7 |
| CC(C)CN1CCC[C@H]1c1nc(-c2ccc(-n3ccnc3)nc2)no1 [CBK288894] | 88.5 |
| c1csc(CN2CCC[C@H]2c2nc(-c3ccc(-n4ccnc4)nc3)no2)c1 [CBK288895] | 111 |
| O=C(O)c1ccc(CN2CCC[C@H]2c2nc(-c3ccc(F)cn3)no2)cc1 [CBK288896] | 96.9 |
| COc1ccc(CN2CCC[C@H]2c2nc(-c3ccc(OC)nc3)no2)c(O)c1 [CBK288898] | 92 |
| O[C@@H]1C[C@@H](c2nc(-c3ccccn3)no2)N(Cc2ccccc2)C1 [CBK288900] | 81.3 |
| Nc1ncncc1-c1noc([C@@H]2CCCN2c2ncccn2)n1 [CBK288901] | 111 |
| CN(C)c1ccc(-c2noc([C@@H]3CCCN3C3CCOCC3)n2)cn1 [CBK288903] | 93.8 |
| O=C(NC[C@H]1O[C@@H](CC(=O)N2CCN(c3ccccn3)CC2)[C@H](O)[C@@H]1O)C1CC1 [CBK288904] | 107 |
| O=C(C[C@@H]1O[C@H](CNCc2cccc(Cl)c2)[C@@H](O)[C@H]1O)N1CCOCC1 [CBK288905] | 77.3 |
| O=C(NC[C@H]1O[C@@H](CC(=O)N2CCCC2)[C@H](O)[C@@H]1O)c1cccc(F)c1 [CBK288908] | 88.3 |
| Cc1ccc(S(=O)(=O)NC[C@H]2O[C@@H](CC(=O)N3CCCC3)[C@H](O)[C@@H]2O)cc1 [CBK288910] | 112 |
| O=C(C[C@@H]1O[C@H](CNS(=O)(=O)c2ccc(Cl)cc2)[C@@H](O)[C@H]1O)N1CCCC1 [CBK288911] | 94.2 |
| O=C(NC[C@H]1O[C@@H](CC(=O)N2CCCC2)[C@H](O)[C@@H]1O)c1ccc(F)c(Cl)c1 [CBK288913] | 90.9 |

| SMILES | viability at 28.5 h, 10 µM [%] |
| --- | --- |
| O=C(C[C@@H]1O[C@H](CNCc2cccc(Cl)c2)[C@@H](O)[C@H]1O)N1CCc2ccccc21 [CBK288918] | 89 |
| O=C(NC[C@H]1O[C@@H](CC(=O)N2CCN(c3ccccc3)CC2)[C@H](O)[C@@H]1O)c1ccccc1 [CBK288920] | 108 |
| O=C(NC[C@H]1O[C@@H](CC(=O)N2CCN(c3ccc(F)cc3)CC2)[C@H](O)[C@@H]1O)C1CC1 [CBK288921] | 92.7 |
| O=C(NC[C@H]1O[C@@H](CC(=O)N2CCN(c3ccc(F)cc3)CC2)[C@H](O)[C@@H]1O)c1ccco1 [CBK288922] | 95.4 |
| Cc1ccc(S(=O)(=O)NC[C@H]2O[C@@H](CC(=O)N3CCOCC3)[C@H](O)[C@@H]2O)cc1 [CBK288924] | 87.5 |
| CC1CCN(C(=O)C[C@@H]2O[C@H](CNS(=O)(=O)c3ccccc3)[C@@H](O)[C@H]2O)CC1 [CBK288927] | 89.7 |
| NC(=O)[C@@H]1C[C@@H](O)[C@H](O)[C@H]2[C@@H]1N(c1ccccc1)C(=S)N2Cc1ccc(F)cc1 [CBK288928] | 102 |
| Nc1ncncc1-c1noc([C@@H]2CCCN2C2CCOCC2)n1 [CBK288932] | 90.7 |
| NC(=O)[C@@H]1C[C@@H](O)[C@H](O)[C@H]2[C@@H]1N(c1ccc(Cl)cc1)C(=S)N2CC1CCCCC1 [CBK288933] | 86.8 |
| COc1ccc(CN2C(=S)N(CC3CCCCC3)[C@H]3[C@@H]2[C@H]2OC(=O)[C@@H]3C[C@H]2O)cc1 [CBK288936] | 117 |
| NC(=O)[C@H]1C[C@@H](O)[C@H](O)[C@H]2[C@@H]1S/C(=N\c1ccc(Cl)cc1)N2Cc1ccccc1 [CBK288940] | 94.9 |
| COc1ccc(/N=C2\S[C@H]3[C@H]([C@@H](O)[C@H](O)C[C@@H]3C(N)=O)N2Cc2ccc(F)cc2)cc1 [CBK288942] | 90.5 |
| COc1ccc(/N=C2\S[C@H]3[C@H]([C@@H](O)[C@H](O)C[C@@H]3C(N)=O)N2Cc2cccs2)cc1 [CBK288943] | 88.7 |
| NC(=O)[C@H]1C[C@@H](O)[C@H](O)[C@H]2[C@@H]1S/C(=N\c1ccccc1)N2Cc1cccs1 [CBK288944] | 100 |
| C=CCN(C)C(=O)[C@H]1C[C@@H](O)[C@H](O)[C@@H]2N=C(Nc3ccc(Cl)cc3)S[C@@H]21 [CBK288946] | 87 |
| C=CCN(C)C(=O)[C@H]1C[C@@H](O)[C@H](O)[C@@H]2N=C(Nc3ccc(OC)cc3)S[C@@H]21 [CBK288947] | 97.1 |
| C=CCN(C)C(=O)[C@H]1C[C@@H](O)[C@H](O)[C@@H]2N=C(Nc3cc(C)cc(C)c3)S[C@@H]21 [CBK288948] | 94.2 |
| Cc1cc(C)cc(NC2=N[C@H]3[C@@H](O)[C@H](O)C[C@H](C(=O)N4CCCCC4)[C@H]3S2)c1 [CBK288952] | 90 |
| O=C([C@H]1C[C@@H](O)[C@H](O)[C@@H]2N=C(Nc3ccc4c(c3)OCO4)S[C@@H]21)N1CCCCC1 [CBK288953] | 108 |
| c1ccc2oc(CN3Cc4nc[nH]c4C[C@H]3c3nc(-c4cnccn4)no3)cc2c1 [CBK288954] | 113 |
| CC(=O)Nc1ccc(CN2Cc3nc[nH]c3C[C@H]2c2nc(-c3ccc(F)cc3)no2)cc1 [CBK288956] | 89.7 |
| CC(=O)c1ccc(NC(=O)N2Cc3nc[nH]c3C[C@H]2c2nc(-c3ccc(C)cc3)no2)cc1 [CBK288959] | 83.6 |
| CC(C)NC(=O)N1Cc2nc[nH]c2C[C@H]1c1nc(-c2ccc(OC(F)(F)F)cc2)no1 [CBK288960] | 85.9 |
| Cc1cccc(-c2noc([C@@H]3Cc4[nH]cnc4CN3C(=O)CC(C)(C)CC(=O)O)n2)c1 [CBK288961] | 95.8 |
| Cc1cccc(-c2noc([C@@H]3Cc4[nH]cnc4CN3C(=O)NC(C)C)n2)c1 [CBK288962] | 97.6 |

| SMILES | viability at 28.5 h, 10 µM [%] |
| --- | --- |
| N#Cc1ccc(C(=O)N2Cc3nc[nH]c3C[C@H]2c2nc(-c3ccncc3)no2)cc1 [CBK288963] | 117 |
| O=C(c1ccco1)N1Cc2nc[nH]c2C[C@H]1c1nc(-c2ccc3ccccc3c2)no1 [CBK288965] | 108 |
| O=C(Nc1ccc(F)cc1)N1Cc2nc[nH]c2C[C@H]1c1nc(-c2ccc(F)cc2)no1 [CBK288970] | 95 |
| O=C(NCc1ccccc1)[C@@H]1Cc2[nH]cnc2CN1C(=O)C1CCCCC1 [CBK288972] | 113 |
| CC(C)NC(=O)N1Cc2nc[nH]c2C[C@H]1C(=O)NCc1ccco1 [CBK288974] | 92.9 |
| CCNC(=O)N1Cc2nc[nH]c2C[C@H]1C(=O)NCc1ccc(C#N)cc1 [CBK288975] | 96.2 |
| COc1ccc(CN2Cc3nc[nH]c3C[C@H]2C(=O)NCc2ccccc2)c2ccccc12 [CBK288976] | 86.5 |
| O=C([C@@H]1Cc2[nH]cnc2CN1Cc1cc2ccccc2o1)N1CCOCC1 [CBK288977] | 114 |
| CN(Cc1ccccc1)C(=O)[C@@H]1Cc2[nH]cnc2CN1Cc1cc2ccccc2o1 [CBK288978] | 108 |
| O=C(NCc1ccc(C(F)(F)F)cc1)[C@@H]1Cc2[nH]cnc2CN1C1CCOCC1 [CBK288981] | 103 |
| COC(=O)[C@@H]1Cc2ncn(Cc3ccc(OC)cc3)c2CN1C(=O)c1ccc(C#N)cc1 [CBK288982] | 95.4 |
| COC(=O)[C@@H]1Cc2ncn(Cc3ccc(Cl)cc3)c2CN1C(=O)c1ccc(C#N)cc1 [CBK288984] | 94.5 |
| COC(=O)[C@@H]1Cc2ncn(C(C)C)c2CN1S(=O)(=O)c1ccc([N+](=O)[O-])cc1 [CBK288985] | 95.7 |
| COC(=O)[C@@H]1Cc2ncn(C(C)C)c2CN1C(=O)CC(C)(C)C [CBK288988] | 88.9 |
| COC(=O)[C@@H]1Cc2ncn(C(C)C)c2CN1C(=O)c1ccc(F)cc1 [CBK288990] | 80.6 |
| CCCS(=O)(=O)N1Cc2c(ncn2C)C[C@H]1C(=O)OC [CBK288991] | 90.2 |
| COC(=O)[C@@H]1Cc2ncn(C)c2CN1S(=O)(=O)c1cccs1 [CBK288992] | 104 |
| COC(=O)[C@@H]1Cc2ncn(C)c2CN1C(=O)c1ccc(C#N)cc1 [CBK288994] | 76.5 |
| CCCn1cnc2c1CN(C(C)=O)[C@H](C(=O)OC)C2 [CBK288995] | 101 |
| CC(C)NC(=O)N1Cc2nc[nH]c2C[C@H]1c1nc(-c2ccccc2)no1 [CBK288996] | 83 |
| c1ccc2oc(CN3Cc4nc[nH]c4C[C@H]3c3nc(-c4ccc5c(c4)OCO5)no3)cc2c1 [CBK288998] | 81.5 |
| CC(C)NC(=O)N1Cc2nc[nH]c2C[C@H]1c1nc(-c2ccc(F)c(Cl)c2)no1 [CBK288999] | 86.6 |
| O=C1NC[C@@H](CCC(=O)N2CCCC2)N2C[C@@H](NC(=S)Nc3ccccc3)C[C@@H]12 [CBK289004] | 113 |
| N[C@H]1C[C@H]2C(=O)NC[C@@H](CCC(=O)NCc3cccs3)N2C1 [CBK289005] | 86.6 |
